# Test results published in PubChem BioAssay AID588786 (The Scripps Research Institute Molecular Screening Center, 2011).
# Calls of active or inactive are those of the source. The rule behind the calls is not given here.
# Target: SARS coronavirus 3C-like protease (3CLpro)
# Test: SARS 3CLpro protease inhibitor potency, late-stage follow-up, biochemical, fluorescence, dose response, set 4 (AID 588786)
# Conditions: recombinant 3CLpro, fluorogenic peptide cleavage
row,Compound,IC50
1,CC(C)(C)NC(=O)C(c1cccnc1)N(C(=O)c1ccco1)c1ccc(-c2cncnc2)cc1 (stereo not given),4.5 µM
2,CC(C)(C)NC(=O)C(c1cccnc1)N(C(=O)c1ccco1)c1ccc(-c2cccnc2)cc1 (stereo not given),inactive
3,CC(C)(C)NC(=O)C(c1cccnc1)N(C(=O)c1ccco1)c1ccc(-c2ccccc2)cc1 (stereo not given),2.3 µM
4,Cc1noc(C)c1-c1ccc(N(C(=O)c2ccco2)C(C(=O)NC(C)(C)C)c2cccnc2)cc1 (stereo not given),inactive
5,CC(C)(C)NC(=O)C(c1cccnc1)N(C(=O)c1ccco1)c1ccc(-c2cccc(F)c2F)cc1 (stereo not given),3.2 µM
6,COc1cccc(Oc2ccc(N(C(=O)c3ccco3)C(C(=O)NC(C)(C)C)c3cccnc3)cc2)c1 (stereo not given),inactive
7,CC(C)(C)NC(=O)C(c1cccnc1)N(C(=O)c1ccco1)c1ccc(OCc2ccccc2)cc1 (stereo not given),inactive
8,CC(C)(C)c1ccc(N(Cc2cccnc2)C(=O)c2cnc[nH]2)cc1,inactive
9,CC(C)(C)NC(=O)C(c1cccnc1)N(C(=O)c1ccco1)c1ccc(I)cc1 (stereo not given),inactive
10,CC(C)(C)NC(=O)C(c1cccnc1)N(C(=O)c1ccco1)c1ccc(-c2cccn2C(=O)OC(C)(C)C)cc1 (stereo not given),inactive
